Results from ChEMBL document CHEMBL1137061 (Bioorg Med Chem Lett, 2004).
pKi: −log10 of the molar value.

Key:
Type in all cases: cell membranes, Membrane
[1] = biological target: Neuronal acetylcholine receptor subunit alpha-7 (Rattus norvegicus, UniProt Q05941)
[2] = biological target: Muscarinic acetylcholine receptor; assay: Inhibition of [3H]N-methylscopolamine binding to muscarinic receptor of rat cortex membranes
[3] = biological target: Neuronal acetylcholine receptor; alpha4/beta2 (Rattus norvegicus, UniProt P09483+P12390); assay: Inhibition of [3H]epibatidine binding to alpha 4 beta 2 nicotinic acetylcholine receptor of rat cortex membranes
Chain of Neuronal acetylcholine receptor; alpha4/beta2 (P09483 whole entry): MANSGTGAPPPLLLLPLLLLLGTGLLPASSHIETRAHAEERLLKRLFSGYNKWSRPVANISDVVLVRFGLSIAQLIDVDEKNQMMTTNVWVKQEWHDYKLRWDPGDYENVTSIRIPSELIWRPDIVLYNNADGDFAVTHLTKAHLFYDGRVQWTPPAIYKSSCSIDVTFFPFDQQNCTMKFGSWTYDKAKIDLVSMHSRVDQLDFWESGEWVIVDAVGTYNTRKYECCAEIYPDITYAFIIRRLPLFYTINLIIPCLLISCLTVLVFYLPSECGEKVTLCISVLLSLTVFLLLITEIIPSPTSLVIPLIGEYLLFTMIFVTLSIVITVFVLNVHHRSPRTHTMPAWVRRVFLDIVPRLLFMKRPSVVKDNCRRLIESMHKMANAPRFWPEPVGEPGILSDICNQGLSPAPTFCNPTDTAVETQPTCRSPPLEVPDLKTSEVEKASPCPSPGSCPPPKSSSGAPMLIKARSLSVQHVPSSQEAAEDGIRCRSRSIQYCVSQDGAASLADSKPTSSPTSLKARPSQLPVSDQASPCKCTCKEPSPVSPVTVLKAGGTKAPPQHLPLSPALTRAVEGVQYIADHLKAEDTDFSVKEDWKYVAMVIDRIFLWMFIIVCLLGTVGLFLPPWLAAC
Chain of Neuronal acetylcholine receptor; alpha4/beta2 (P12390 whole entry): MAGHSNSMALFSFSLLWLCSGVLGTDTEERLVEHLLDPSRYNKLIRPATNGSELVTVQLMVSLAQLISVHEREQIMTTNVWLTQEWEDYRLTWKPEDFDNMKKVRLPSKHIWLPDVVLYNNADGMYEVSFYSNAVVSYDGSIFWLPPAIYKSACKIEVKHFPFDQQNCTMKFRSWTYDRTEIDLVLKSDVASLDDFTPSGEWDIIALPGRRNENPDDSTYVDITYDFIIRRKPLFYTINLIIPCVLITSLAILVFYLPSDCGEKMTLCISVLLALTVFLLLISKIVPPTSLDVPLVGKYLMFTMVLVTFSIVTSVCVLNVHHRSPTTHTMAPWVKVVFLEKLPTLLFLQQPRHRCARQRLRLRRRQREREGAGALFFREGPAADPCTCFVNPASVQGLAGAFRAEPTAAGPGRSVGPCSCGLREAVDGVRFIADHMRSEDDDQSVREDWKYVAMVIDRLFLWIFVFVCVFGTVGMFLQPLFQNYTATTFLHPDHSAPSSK

Chain of Neuronal acetylcholine receptor subunit alpha-7 (Q05941 whole entry): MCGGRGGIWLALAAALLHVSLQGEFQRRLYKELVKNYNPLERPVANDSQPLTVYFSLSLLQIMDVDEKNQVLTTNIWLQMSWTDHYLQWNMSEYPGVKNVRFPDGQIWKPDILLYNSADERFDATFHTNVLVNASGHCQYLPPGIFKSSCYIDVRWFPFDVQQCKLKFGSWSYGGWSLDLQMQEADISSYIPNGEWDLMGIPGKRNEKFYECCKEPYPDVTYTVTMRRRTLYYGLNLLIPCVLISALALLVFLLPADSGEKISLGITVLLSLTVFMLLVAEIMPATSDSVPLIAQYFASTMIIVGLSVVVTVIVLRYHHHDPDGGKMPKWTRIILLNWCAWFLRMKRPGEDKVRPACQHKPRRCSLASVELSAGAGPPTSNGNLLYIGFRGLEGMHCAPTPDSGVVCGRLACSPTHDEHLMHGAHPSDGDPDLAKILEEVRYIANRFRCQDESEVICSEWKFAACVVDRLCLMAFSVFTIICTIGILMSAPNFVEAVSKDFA

Row | SMILES | pKi [1] | Ki [2] | pKi [3]
1 | C/C=N\OC[C@@H]1CCCN1C | < 4.30 | > 50 µM | –
2 | CC(C)=NO[C@H]1CCCN(C)C1 | – | – | < 4.30
3 | CC(C)=NOC[C@@H]1CCCN1C | 4.31 | > 50 µM | 6.28
4 | CC(C)O/N=C/[C@@H]1CCCN1C | < 4.30 | 17 µM | –
5 | CC=NOC[C@@H]1CCCN1C | < 4.30 | > 50 µM | 6.17
6 | C/C=N\OC[C@H]1CCCN1C | – | – | 5.24
7 | CC(C)O/N=C/[C@H]1CCCN1C | 4.33 | – | 5.26
8 | CC(C)O/N=C\[C@@H]1CCCN1C | – | – | 5.72
9 | CC(C)=NO[C@@H]1CCCN(C)C1 | – | – | < 4.30
10 | CC(C)O/N=C\[C@H]1CCCN1C | – | – | 4.84
11 | Cc1cc([C@@H]2CCCN2C)on1 [ABT-418] | 5.92 | – | 7.70
